Results reported in patent US7659277B2, “Ubiquitin ligase inhibitors and methods related thereto” (Proteologies, Ltd., priority 2003, dated 2010).

What was measured:
POSH = molecular target: T1, POSH (Homo sapiens, UniProt Q7Z6J0); assay: IC50 assay procedure: GST-POSH auto-ubiquitination, homogeneous time-resolved fluorescence (Ub-cryptate / anti-GST XL665); format: biochemical; conditions: ubiquitin ligase activity of POSH; GST-POSH 33 nM, 30 min preincubation
T1 construct: GST-POSH lot NB81/p.118 3.6 mg/ml; fused on or other part: GST tag, used for detection with anti-GST XL665
T1 sequence (Q7Z6J0 1-269 limits assumed): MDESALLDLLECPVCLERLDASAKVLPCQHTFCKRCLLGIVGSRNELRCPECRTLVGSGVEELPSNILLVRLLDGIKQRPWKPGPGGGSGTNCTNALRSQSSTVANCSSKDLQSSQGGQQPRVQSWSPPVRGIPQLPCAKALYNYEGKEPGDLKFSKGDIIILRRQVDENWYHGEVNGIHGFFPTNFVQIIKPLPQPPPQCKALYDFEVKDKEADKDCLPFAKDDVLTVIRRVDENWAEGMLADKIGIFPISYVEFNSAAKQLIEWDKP
From the text: In certain preferred embodiments, agents that inhibit (or promote) the ubiquitin ligase activity of a ubiquitin ligase, such as POSH, may be identified using a homogenous time resolved fluorescence assay. Such an assay may employ a GST fused to the RING subunit of a ubiquitin ligase (e.g. POSH). Two flurophore-conjugated detection reagents are also used: anti-GSTXL665 and europium cryptate labeled ubiqutin. The ubiqutination of the ubiquitin ligase by ubiqutin cryptate and binding of the anti-GST tagged XL665 brings the fluorophores into close proximity allowing FRET reaction to occur. Accordingly, FRET serves as a measurement of ubiquitination of the ubiquitin ligase. An enzymatic system may be set up to provide activated ubiquitin, e.g., by providing ubiquitin, an E1 and an E2. Compounds that will not allow the FRET reaction are considered to be inhibitors.
Step 3: establish IC 50 value measurements.
Experimental Protocols: 1. HTS Screening Assay Procedure • Microplates 10109D to 10114D compounds at 1 mM. • (Controls in column 1). • All compounds were perchase from ChemBridge corporation: ChemBridge corporation 16981 Via Tazon, Suite G San Diego, Calif. 92127 a. Microplates Labeling • Put labels to 6 PS U-bottom clear microplate. • Put labels to 18 black microplates (triplicats). b. Microplates Preparation • Put 100 μl GST-POSH at 33 nM in wells of the clear PS U-bottom microplates (exept wells A1-D1). • Negative control: place 100 μl dH2O in wells A1-D1. • (Positive control: place 100 μl GST-POSH at 33 nM in wells E1-H1). • Put 8 μl enzymes solution ×4 to black microplates (column 1 to 11). c. Incubation of E3 with Compounds • Transfer 5 μl of compounds (at 1 mM) to the microplates containing 100 μl GST-POSH. • Add 5 μl of DMSO to controls column 1. • Incubation 30 minutes at RT. d. Enzymatic (Ubiquitination) and Final Steps • Distribution of (triplicate) 3×23 μl incubated compounds into 3 black microplates containing enzymatic solution (on splitting apparatus). • Incubation 30 minutes at 37° C. • Addition of 8 μl EDTA 0.5 M. • Incubation 15 (at least) minutes at RT. • Addition of 30 μl GST XL 665 in reconstitution buffer. • Incubation 45 (at least) minutes at RT. • Reading fluorescence. • Record results in computer. • Put sealing foil back on original and diluted microplates and keep at −70° C. • Always the plates must be closed with lids during each step. 2. […] Microplates Labeling • Put labels to 4 clear PP clear microplate (18.2 μM, 9.1 uM, 1.82 uM, 910 nM,). • Put labels to 5 clear PS U-bottom clear microplate 4.44 μM, 909, 444, 91 and 44 nM) • Put labels to 15 black microplates (triplicates). f. Original Microplate Dilutions • Put DMSO 40 μl to (18.2 μM, 1.82 uM plates) and 20 ul to (9.1 uM, 910 nM plates. • Mix by pipetation the original microplate (3× up and down 45 μl). • Transfer 10 μl of compounds from the original microplate (at 91 μM) to the next microplate (=18.2 μM) on splitting apparatus. • Mix by pipetation the 18.2 uM microplate (3× up and down 45 μl). • Transfer 20 μl of compounds from the 18.2 uM microplate to the next microplate (=9.1 μM) on splitting apparatus. • Mix by pipetation the 9.1 uM microplate (3× up and down 45 μl). • Transfer 10 μl of compounds from the 9.1 uM microplate to the next microplate (=1.82 μM) on splitting apparatus. • Mix by pipetation the 1.82 uM microplate (3× up and down 45 μl). • Transfer 20 μl of compounds from the 1.82 uM microplate to the next microplate (=910 nM) on splitting apparatus • Mix by pipetation. g. Microplates Preparation • Put 123 μl GST-POSH at 33 nM in wells of the 5 clear PS U-bottom clear microplates. • Positive control: place 123 μl GST-POSH at 33 nM in well A12-h12 13 μl DMSO. • Negative control: place 123 μl dH2O in well B1 and 13 μl DMSO. • Put 8 μl enzymes solution ×4 to 15 black microplates. • Controls: put 8 μl enzymes solution ×4 to wells A1 to F1. h. […]

HIV-1 = assay: HIV maturation (budding) in virus-like particle assay, HIV-1 p24 antigen ELISA; format: cell-based; conditions: Human immunodeficiency virus 1, read-out: Budding (3 μM)
From the text: Compounds were further assessed for effects on maturation of HIV particles in a virus-like particle assay.

`CC(=C\c1ccccc1)/C=C1/NC(=S)NC1=O` [Compound 30] was tested, and the IC50 (POSH) was 2000 nM.
`Cc1c(Br)c(=O)oc2c(Br)c(O)c(O)cc12` [Compound 83] gave an IC50 (POSH) of 1000 nM.
`CC(C)(C)c1ccc(C2=N/C(=C\c3cccs3)C(=O)O2)cc1` [Compound 48] gave an IC50 (POSH) of 1300 nM and an activity at 3 µM (HIV-1) of 58%.
Molecule `CCCOC(=O)c1ccc(/N=C/c2c(O)ccc3ccccc23)cc1` [Compound 69] has an IC50 (POSH) of 700 nM and an activity at 3 µM (HIV-1) of 41%.
Work on `O=C1/C(=C\c2cc(Cl)ccc2O)Sc2ccccc21` [Compound 44] yielded an IC50 (POSH) of 650 nM.
